Measurements: publication PMC6125496 (Antimicrobial Agents and Chemotherapy, 2018)
Converted amounts (≈) assume the structure as drawn. Where two headings read alike, the source gives them in different places. Non-standard residues stand in square brackets, D forms with d. Residues, ends and D or L forms follow the SMILES beside them. Dab(3S-OH) = NC[C@H](O)[C@H](N)C(=O)O; Phe(2-F) = N[C@@H](Cc1ccccc1F)C(=O)O; ΔZArg = N=C(N)NCC/C=C(\N)C(=O)O; dOrn = NCCC[C@@H](N)C(=O)O; Dab = NCC[C@H](N)C(=O)O

Tests used:
[1] = test system: human renal proximal tubular epithelial cells (HRPTEpiC); experiment: Multiplexed HRPTEpiC cytotoxicity assay (cell viability, KIM-1, HSP27)
Experimental: The multiplexed cytotoxicity assay on human renal proximal tubule epithelial cells (HRPTEpiC) was conducted by Eurofins Panlabs (Eurofins Panlabs, Inc., St. Charles, MO) by using an image-based high content analysis (HCA) technique where cells were fixed and stained with nuclear dye to visualize nuclei and fluorescently labeled antibodies to detect drug-induced cellular injury and cellular stress arising from oxidative and chemical stress. Cells were seeded into 384-well plates and grown in RPMI 1640, 10% fetal bovine serum (FBS), 2 mM L-alanyl-L-glutamine, and 1 mM sodium pyruvate in a humidified atmosphere of 5% CO2 at 37°C. […] Compounds were serially diluted 3.16-fold and assayed over 10 concentrations in a final assay concentration of 0.5% dimethyl sulfoxide (DMSO) from 100 μM to 3.7 nM. At the same time, a time zero untreated cell plate was generated. After a 48-h incubation period, cells were fixed and stained with fluorescently labeled antibodies and nuclear dyed to allow visualization of nuclei, injured cells, and stressed cells. Injured cells were detected using a KIM-1 (kidney injury molecule 1) antibody. Stressed cells were detected using an anti-HSP27 (heat shock protein 27) antibody. Cell proliferation was measured by the signal intensity of the incorporated nuclear dye. The cell proliferation assay output was referred to as the relative cell count. To determine the cell proliferation endpoint, the cell proliferation data output was transformed to percentage of control (POC) using the following formula: POC = relative cell count in compound wells/relative cell count in vehicle wells × 100. The signal intensity of the incorporated cellular stress and injury measurements were normalized with the relative cell count from each well. Automated fluorescence microscopy was carried out using a Molecular Devices ImageXpress micro-imager, and images were collected with a 4× objective.

[2] = test system: Ciprofloxacin-resistant E. coli (19); experiment: microbe, parasite or virus in culture
From the text: (§1) Reference strains are from the German Collection of Microorganisms and Cell Cultures (DSMZ), the American Type Culture Collection (ATCC), the National Collection of Type Cultures (NCTC), and the Medical and Molecular Microbiology, Faculty of Science and Medicine, University of Fribourg, Switzerland.

[3] = test system: Klebsiella pneumoniae NCTC 13439; experiment: microbe, parasite or virus in culture
From the text: as §1

[4] = test system: Klebsiella pneumoniae ATCC BAA-1904; experiment: microbe, parasite or virus in culture
From the text: as §1

[5] = test system: Citrobacter freundii DSM 30039; experiment: microbe, parasite or virus in culture
From the text: as §1

[6] = test system: Pseudomonas aeruginosa DSM 1117; experiment: microbe, parasite or virus in culture
From the text: as §1

[7] = test system: Enterococcus faecium DSM 20477; experiment: microbe, parasite or virus in culture
From the text: as §1

[8] = test system: Escherichia coli BAA-2471; experiment: microbe, parasite or virus in culture
From the text: as §1

[9] = test system: Escherichia coli ATCC 25922; experiment: microbe, parasite or virus in culture
From the text: as §1

[10] = test system: Klebsiella pneumoniae NCTC 13442; experiment: microbe, parasite or virus in culture
From the text: as §1

[11] = test system: Streptococcus pneumoniae DSM 2134; experiment: microbe, parasite or virus in culture
From the text: as §1

[12] = test system: Klebsiella pneumoniae NCTC 13443; experiment: microbe, parasite or virus in culture
From the text: as §1

[13] = test system: Enterobacter aerogenes DSM 30053; experiment: microbe, parasite or virus in culture
From the text: as §1

[14] = test system: Gentamicin-resistant K. pneumoniae (16); experiment: microbe, parasite or virus in culture
From the text: as §1

[15] = test system: Enterobacter cloacae DSM 14563; experiment: microbe, parasite or virus in culture
From the text: as §1

[16] = test system: Staphylococcus aureus ATCC 29213; experiment: microbe, parasite or virus in culture
From the text: as §1

[17] = test system: Stenotrophomonas maltophilia ATCC 13637; experiment: microbe, parasite or virus in culture
From the text: as §1

[18] = test system: Enterobacter cloacae (13); experiment: microbe, parasite or virus in culture
From the text: as §1

[19] = test system: Enterococcus faecalis DSM 2570; experiment: microbe, parasite or virus in culture
From the text: as §1

[20] = test system: Citrobacter freundii (16); experiment: microbe, parasite or virus in culture
From the text: as §1

[21] = test system: Escherichia coli (101); experiment: microbe, parasite or virus in culture; details: 101 clinical isolates
From the text: as §1

[22] = test system: Klebsiella pneumoniae ATCC BAA-1905; experiment: microbe, parasite or virus in culture
From the text: as §1

[23] = test system: Staphylococcus epidermidis ATCC 12228; experiment: microbe, parasite or virus in culture
From the text: as §1

[24] = test system: Klebsiella pneumoniae (56); experiment: microbe, parasite or virus in culture
From the text: as §1

[25] = test system: Klebsiella pneumoniae ATCC 43816; experiment: microbe, parasite or virus in culture
From the text: as §1

[26] = test system: Citrobacter kozeri DSM 4595; experiment: microbe, parasite or virus in culture
From the text: as §1

[27] = test system: Serratia marcescens DSM 17174; experiment: microbe, parasite or virus in culture
From the text: as §1

[28] = test system: Acinetobacter baumannii ATCC 19606; experiment: microbe, parasite or virus in culture
From the text: as §1

[29] = test system: Ciprofloxacin-resistant K. pneumoniae (27); experiment: microbe, parasite or virus in culture
From the text: as §1

[30] = test system: Escherichia coli BAA-2469; experiment: microbe, parasite or virus in culture
From the text: as §1

[31] = test system: Klebsiella pneumoniae DUB; details: Ambler class D carbapenemase; OXA-48 + CTX-M15 + TEM-1 + SHV-1 + OXA-1 + CMY-2
From the text: as §1

[32] = test system: Citrobacter freundii MAU; details: Ambler class C carbapenem resistant; AmpC overexpressed + TEM-3
From the text: as §1

[33] = 19 ciprofloxacin-resistant isolates
[34] = Ambler class B carbapenemase, NDM-1
[35] = 16 gentamicin-resistant isolates
[36] = 27 ciprofloxacin-resistant isolates

N=C(N)NCC/C=C(\NC(=O)[C@H](CCCCN)NC(=O)[C@H](Cc1ccccc1F)NC(=O)[C@@H]1CCCN1C(=O)[C@@H](CCCN)NC(=O)CNC(=O)[C@H](CCN)NC(=O)[C@@H](NC(=O)[C@@H](N)CCCCN)[C@@H](O)CN)C(=O)O [NOSO-502] (H-K[Dab(3S-OH)][Dab]G[dOrn]P[Phe(2-F)]K[ΔZArg]-OH)
concentration inducing a significant (5-fold) increase of KIM-1 level ([1]; tested up to 100 μM): > 100 µM | MIC range ([2]; Ciprofloxacin-resistant (19)): 2 to 32 mg/L | MIC ([3]; NCTC 13439): 1 mg/L (≈ 0.927 µM) | MIC ([4]; ATCC BAA-1904): 2 mg/L (≈ 1.85 µM) | MIC ([5]; DSM 30039): 2 mg/L (≈ 1.85 µM) | MIC ([6]; DSM 1117): >64 mg/L | MIC ([7]; DSM 20477): 64 mg/L (≈ 59.4 µM) | MIC ([8]; BAA-2471): 4 mg/L (≈ 3.71 µM) | MIC ([9]; ATCC 25922): 4 mg/L (≈ 3.71 µM) | MIC ([10]; NCTC 13442): 1 mg/L (≈ 0.927 µM) | MIC ([11]; DSM 2134): 64 mg/L (≈ 59.4 µM) | MIC ([12]; NCTC 13443): 1 mg/L (≈ 0.927 µM) | MIC ([13]; DSM 30053): 2 mg/L (≈ 1.85 µM) | MIC range ([14]; Gentamicin-resistant (16)): 0.5 to 2 mg/L | MIC ([15]; DSM 14563): 2 mg/L (≈ 1.85 µM) | MIC ([16]; ATCC 29213): 1 mg/L (≈ 0.927 µM) | MIC ([17]; ATCC 13637): 16 mg/L (≈ 14.8 µM) | MIC range [18]; 13: 1 to 4 mg/L | MIC ([19]; DSM 2570): >64 mg/L | MIC range [20]: 1 to 4 mg/L | MIC 50% [21]: 4 mg/L (≈ 3.71 µM) | MIC 90% [21]: 8 mg/L (≈ 7.42 µM) | MIC ([22]; ATCC BAA-1905): 1 mg/L (≈ 0.927 µM) | MIC ([23]; ATCC 12228): 0.25 mg/L (≈ 0.232 µM) | MIC range [24]; 56: 0.5 to 16 mg/L | MIC ([25]; ATCC 43816): 1 mg/L (≈ 0.927 µM) | MIC ([26]; DSM 4595): 2 mg/L (≈ 1.85 µM) | MIC ([27]; DSM 17174): 4 mg/L (≈ 3.71 µM) | MIC ([28]; ATCC 19606): >64 mg/L | MIC range ([29]; Ciprofloxacin-resistant (27)): 0.5 to 16 mg/L | MIC ([30]; BAA-2469): 2 mg/L (≈ 1.85 µM) | MIC [31]: 0.5 mg/L | MIC [32]: 1 mg/L

polymyxin B [PMB]
IC50 ([1]; read-out: cytotoxicity IC50 (cell viability), 48-h incubation): 11.8 µM | concentration inducing a significant (5-fold) increase of HSP27 level ([1]; tested up to 100 μM): 9.7 µM | concentration inducing a significant (5-fold) increase of KIM-1 level ([1]; tested up to 100 μM): 12.1 µM | MIC 50% [2, 33]: 0.5 mg/L | MIC 90% [2, 33]: 1 mg/L | MIC range [2, 33]: 0.5 to 32 mg/L | MIC ([3]; Ambler class B carbapenemase, VIM-1): 0.5 mg/L | MIC ([4]; Ambler class A carbapenemase, KPC-3): 0.5 mg/L | MIC ([5]; reference strain): 0.5 mg/L | MIC ([6]; reference strain): 1 mg/L | MIC ([7]; reference strain): >32 mg/L | MIC [8, 34]: 0.25 mg/L | MIC ([9]; reference strain): 0.5 mg/L | MIC ([10]; Ambler class D carbapenemase, OXA-48): 0.5 mg/L | MIC ([11]; reference strain): >32 mg/L | MIC [12, 34]: 0.5 mg/L | MIC ([13]; reference strain): 0.5 mg/L | MIC 50% [14, 35]: 0.5 mg/L | MIC 90% [14, 35]: 1 mg/L | MIC range [14, 35]: 0.5 to 1 mg/L | MIC ([15]; reference strain): 1 mg/L | MIC ([16]; reference strain): 16 mg/L | MIC ([17]; reference strain): 1 mg/L | MIC 50% ([18]; 13 clinical isolates): 0.5 mg/L | MIC 90% ([18]; 13 clinical isolates): 8 mg/L | MIC range ([18]; 13 clinical isolates): 0.5 to 16 mg/L | MIC ([19]; reference strain): >32 mg/L | MIC 50% ([20]; 16 clinical isolates): 0.5 mg/L | MIC 90% ([20]; 16 clinical isolates): 1 mg/L | MIC range ([20]; 16 clinical isolates): 0.25 to 1 mg/L | MIC 50% [21]: 0.5 mg/L | MIC 90% [21]: 1 mg/L | MIC ([22]; Ambler class A carbapenemase, KPC-2): 0.5 mg/L | MIC ([23]; reference strain): 16 mg/L | MIC 50% ([24]; 56 clinical isolates): 0.5 mg/L | MIC 90% ([24]; 56 clinical isolates): 4 mg/L | MIC range ([24]; 56 clinical isolates): 0.25 to 32 mg/L | MIC ([25]; reference strain): 1 mg/L | MIC ([26]; reference strain): 0.25 mg/L | MIC ([27]; reference strain): >32 mg/L | MIC ([28]; reference strain): 0.5 mg/L | MIC 50% [29, 36]: 0.5 mg/L | MIC 90% [29, 36]: 1 mg/L | MIC [30, 34]: 0.25 mg/L | MIC [31]: 0.5 mg/L | MIC [32]: 0.5 mg/L
